Experiments:
[1] = target: T1, BRM (Homo sapiens, UniProt P51531); experiment: ATPase catalytic activity assay of BRM (ADP-Glo); type: biochemical; settings: 30 nM BRM, 400 μM ATP, 20 nM salmon sperm DNA, 1 hour at room temperature
T1 construct: made in house; host or cells: High Five insect cells
Procedure: (§1) Example 38. Assay for ATPase Catalytic Activity of BRM and BRG-1
(§2) The ADP-Glo™ kinase assay is performed in two steps once the reaction is complete.

[2] = target: T2, BRG-1 (Homo sapiens, UniProt P51532); experiment: ATPase catalytic activity assay of BRG-1 (ADP-Glo); type: biochemical; settings: 30 nM BRG-1, 400 μM ATP, 20 nM salmon sperm DNA, 1 hour at room temperature; read-out: BRG1 ATPase: IC50
T2 construct: made in house; host or cells: High Five insect cells
T2 sequence (P51532 whole entry): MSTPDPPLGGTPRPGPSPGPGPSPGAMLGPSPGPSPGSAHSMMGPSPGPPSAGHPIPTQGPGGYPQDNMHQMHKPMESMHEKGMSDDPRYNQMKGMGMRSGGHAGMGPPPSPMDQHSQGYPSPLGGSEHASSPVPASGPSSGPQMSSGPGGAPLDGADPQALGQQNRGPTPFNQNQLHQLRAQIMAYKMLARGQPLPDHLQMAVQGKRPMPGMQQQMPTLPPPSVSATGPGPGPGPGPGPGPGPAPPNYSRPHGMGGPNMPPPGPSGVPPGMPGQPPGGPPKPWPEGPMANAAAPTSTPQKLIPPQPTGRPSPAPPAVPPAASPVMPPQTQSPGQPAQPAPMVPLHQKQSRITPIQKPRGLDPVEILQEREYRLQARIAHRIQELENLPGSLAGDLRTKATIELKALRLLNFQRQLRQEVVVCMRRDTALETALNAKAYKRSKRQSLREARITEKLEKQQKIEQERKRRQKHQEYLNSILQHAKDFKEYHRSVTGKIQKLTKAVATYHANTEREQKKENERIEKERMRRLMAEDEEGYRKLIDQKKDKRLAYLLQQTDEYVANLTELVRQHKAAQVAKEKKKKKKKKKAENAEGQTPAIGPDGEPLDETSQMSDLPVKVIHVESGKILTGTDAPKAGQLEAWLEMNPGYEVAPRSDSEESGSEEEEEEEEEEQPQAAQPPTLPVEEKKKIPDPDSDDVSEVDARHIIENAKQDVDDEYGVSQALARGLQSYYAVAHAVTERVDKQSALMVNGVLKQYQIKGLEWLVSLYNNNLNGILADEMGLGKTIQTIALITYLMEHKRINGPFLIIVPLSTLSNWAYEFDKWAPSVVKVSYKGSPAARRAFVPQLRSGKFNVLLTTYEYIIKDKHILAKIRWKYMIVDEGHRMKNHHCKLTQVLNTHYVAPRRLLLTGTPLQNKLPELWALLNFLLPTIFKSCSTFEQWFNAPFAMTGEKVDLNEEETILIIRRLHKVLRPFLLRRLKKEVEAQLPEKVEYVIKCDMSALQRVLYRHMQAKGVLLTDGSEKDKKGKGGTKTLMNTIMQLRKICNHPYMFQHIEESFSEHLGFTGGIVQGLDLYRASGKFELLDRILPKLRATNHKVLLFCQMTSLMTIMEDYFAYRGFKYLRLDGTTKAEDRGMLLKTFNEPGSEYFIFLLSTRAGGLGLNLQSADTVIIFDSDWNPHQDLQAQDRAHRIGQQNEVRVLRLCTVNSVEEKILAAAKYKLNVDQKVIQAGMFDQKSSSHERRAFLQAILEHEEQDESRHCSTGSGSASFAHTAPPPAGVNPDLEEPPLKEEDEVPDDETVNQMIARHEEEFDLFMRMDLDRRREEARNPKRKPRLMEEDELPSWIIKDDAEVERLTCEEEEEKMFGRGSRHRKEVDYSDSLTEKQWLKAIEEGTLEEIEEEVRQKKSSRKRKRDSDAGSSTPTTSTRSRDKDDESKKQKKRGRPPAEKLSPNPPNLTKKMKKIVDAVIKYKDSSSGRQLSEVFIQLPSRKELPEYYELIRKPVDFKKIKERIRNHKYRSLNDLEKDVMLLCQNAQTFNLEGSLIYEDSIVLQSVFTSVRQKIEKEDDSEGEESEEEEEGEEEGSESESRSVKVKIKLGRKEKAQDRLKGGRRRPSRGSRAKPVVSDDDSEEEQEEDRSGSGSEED
Procedure: as §1, §2

T1 sequence (P51531 whole entry): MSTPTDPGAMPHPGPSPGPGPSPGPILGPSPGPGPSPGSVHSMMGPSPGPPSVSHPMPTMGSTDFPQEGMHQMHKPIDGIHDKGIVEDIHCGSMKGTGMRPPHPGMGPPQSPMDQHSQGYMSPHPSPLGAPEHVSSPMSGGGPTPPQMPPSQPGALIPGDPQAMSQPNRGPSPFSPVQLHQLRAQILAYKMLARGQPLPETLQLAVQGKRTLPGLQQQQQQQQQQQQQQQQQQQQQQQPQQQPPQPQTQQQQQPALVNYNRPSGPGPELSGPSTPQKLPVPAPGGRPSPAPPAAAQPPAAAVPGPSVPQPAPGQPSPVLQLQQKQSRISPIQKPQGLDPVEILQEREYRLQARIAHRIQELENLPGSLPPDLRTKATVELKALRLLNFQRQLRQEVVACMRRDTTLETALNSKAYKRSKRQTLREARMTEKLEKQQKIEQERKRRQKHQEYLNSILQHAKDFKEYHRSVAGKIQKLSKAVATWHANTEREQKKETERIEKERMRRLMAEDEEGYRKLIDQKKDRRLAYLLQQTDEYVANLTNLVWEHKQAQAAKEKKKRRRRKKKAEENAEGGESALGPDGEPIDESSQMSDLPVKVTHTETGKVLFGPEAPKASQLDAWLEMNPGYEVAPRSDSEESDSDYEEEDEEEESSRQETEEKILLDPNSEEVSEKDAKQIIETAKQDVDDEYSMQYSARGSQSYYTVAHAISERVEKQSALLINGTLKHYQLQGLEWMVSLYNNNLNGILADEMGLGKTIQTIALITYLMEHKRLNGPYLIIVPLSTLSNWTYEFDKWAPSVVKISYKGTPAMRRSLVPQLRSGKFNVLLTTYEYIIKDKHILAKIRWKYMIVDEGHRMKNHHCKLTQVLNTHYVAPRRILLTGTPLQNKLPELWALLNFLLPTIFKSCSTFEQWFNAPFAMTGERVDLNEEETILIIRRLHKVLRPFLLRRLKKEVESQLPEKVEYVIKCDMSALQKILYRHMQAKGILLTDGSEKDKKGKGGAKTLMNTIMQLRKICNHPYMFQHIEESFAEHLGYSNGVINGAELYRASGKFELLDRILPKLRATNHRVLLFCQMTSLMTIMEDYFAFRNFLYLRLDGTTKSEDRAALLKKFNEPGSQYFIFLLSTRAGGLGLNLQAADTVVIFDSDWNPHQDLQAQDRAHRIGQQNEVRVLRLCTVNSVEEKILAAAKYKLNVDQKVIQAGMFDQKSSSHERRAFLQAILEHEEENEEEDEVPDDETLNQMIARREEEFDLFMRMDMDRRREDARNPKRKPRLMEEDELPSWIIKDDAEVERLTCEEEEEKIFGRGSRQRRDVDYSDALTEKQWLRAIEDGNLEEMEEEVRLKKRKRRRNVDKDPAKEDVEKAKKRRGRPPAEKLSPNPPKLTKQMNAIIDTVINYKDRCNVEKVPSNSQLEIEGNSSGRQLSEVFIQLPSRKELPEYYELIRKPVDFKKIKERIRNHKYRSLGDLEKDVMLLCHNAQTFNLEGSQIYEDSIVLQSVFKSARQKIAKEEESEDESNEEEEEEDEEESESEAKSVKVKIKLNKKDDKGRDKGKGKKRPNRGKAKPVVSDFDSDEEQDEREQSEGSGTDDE

Row | SMILES | IC50 [1] [nM] | IC50 [2] [nM]
1 | COC(=O)N1CCC[C@H](c2ccc3nc(CNC(=O)c4ccn(S(C)(=O)=O)c4)[nH]c3c2)C1 [Compound 22, (R)-methyl 3-(2-((1-(methylsulfonyl)-1H-pyrrole-3-carboxamido)methyl)-1H-benzo[d]imidazol-6-yl)piperidine-1-carboxylate] | 100 to 1000 | > 1000
2 | CC(C)(C)n1ccc(C(=O)NCc2nc3ccc(-c4ccc(C#N)cc4)cc3[nH]2)c1 [Compound 43] | 100 to 1000 | 100 to 1000
3 | COc1cccc(-c2ccc3cnc(CNC(=O)c4ccn(S(C)(=O)=O)c4)cc3n2)c1 [Compound 62] | 100 to 1000 | 100 to 1000
4 | CS(=O)(=O)n1ccc(C(=O)NCc2cc3nc(-c4cccc(OC5CC5)c4)ccc3cn2)c1 [Compound 70] | 100 to 1000 | 100 to 1000
5 | Cn1ncc2ccc(-c3ccc4nc(CNC(=O)c5ccn(C(C)(C)C)c5)[nH]c4c3)cc21 [Compound 36] | 100 to 1000 | 100 to 1000
6 | C[C@@H](NC(=O)c1ccn(S(C)(=O)=O)c1)c1nc2ccc(-c3cccc(-c4ccncc4)c3)nc2[nH]1 [Compound 5] | 100 to 1000 | 100 to 1000
7 | CC(C)S(=O)(=O)n1ccc(C(=O)NCc2nc3ccc(-c4ccc5ccn(C)c(=O)c5c4)cc3[nH]2)c1 [Compound 24] | 100 to 1000 | 100 to 1000
8 | Nc1ccc(C(=O)NCc2nc3ccc(-c4cccc(-c5ccncc5)c4)nc3[nH]2)cc1 [Compound 1, 4-amino-N-((5-(3-(pyridin-4-yl)phenyl)-3H-imidazo[4,5-b]pyridin-2-yl)methyl)benzamide] | 100 to 1000 | 100 to 1000
9 | CS(=O)(=O)n1ccc(C(=O)NCc2cc3nc(-c4ccc5c(c4)CCO5)ccc3cn2)c1 [Compound 67] | 100 to 1000 | 100 to 1000
10 | CS(=O)(=O)n1ccc(C(=O)NCc2cc3nc(-c4ccc(N5CCC5)cc4)ccc3cn2)c1 [Compound 63] | 100 to 1000 | 100 to 1000
11 | C[C@@H]1CN(c2cccc(-c3ccc4nc(CNC(=O)c5ccn(C(C)(C)C)c5)[nH]c4c3)c2)C[C@H](C)O1 [Compound 15] | 100 to 1000 | 100 to 1000
12 | C[C@@H]1CN(c2ccc(-c3ccc4nc(CNC(=O)c5ccn(S(C)(=O)=O)c5)[nH]c4n3)cc2)C[C@H](C)O1 [Compound 14] | 100 to 1000 | 100 to 1000
13 | CS(=O)(=O)n1ccc(C(=O)NCc2nc3ccc(-c4ccccc4)cc3[nH]2)c1 [Compound 27] | 100 to 1000 | 100 to 1000
14 | C[C@@H]1CN(c2cccc(-c3ccc4nc(CNC(=O)c5ccn(C6(C#N)CC6)c5)[nH]c4n3)c2)C[C@H](C)O1 [Compound 18] | 100 to 1000 | 100 to 1000
15 | CS(=O)(=O)n1ccc(C(=O)NCc2nc3ccc(-c4cccc(N5CCC(O)CC5)c4)nc3[nH]2)c1 [Compound 12, N-((5-(3-(4-hydroxypiperidin-1-yl)phenyl)-3H-imidazo[4,5-b]pyridin-2-yl)methyl)-1-(methylsulfonyl)-1H-pyrrole-3-carboxamide] | 100 to 1000 | 100 to 1000
16 | COC(=O)N1CCC[C@H](c2ccc3nc(CNC(=O)c4ccn(S(C)(=O)=O)c4)[nH]c3n2)C1 [Compound 26] | 100 to 1000 | > 1000
17 | CS(=O)(=O)n1ccc(C(=O)NCc2nc3ccc(-c4cccc(N5CCC5)c4)cc3[nH]2)c1 [Compound 7] | 100 to 1000 | 100 to 1000
18 | CC(C)(C)n1ccc(C(=O)NCc2nc3ccc(-c4ccc(N5CCOCC5)nc4)cc3[nH]2)c1 [Compound 55] | 100 to 1000 | 100 to 1000
19 | COC(=O)N1CCC[C@@H](c2ccc3nc(CNC(=O)c4ccn(S(C)(=O)=O)c4)[nH]c3c2)C1 [Compound 21, (S)-methyl 3-(2-((1-(methylsulfonyl)-1H-pyrrole-3-carboxamido)methyl)-1H-benzo[d]imidazol-6-yl)piperidine-1-carboxylate] | 100 to 1000 | 100 to 1000
20 | C[C@@H]1CN(c2cccc(-c3ccc4nc(CNC(=O)c5ccn(C(C)(C)C)c5)[nH]c4n3)c2)C[C@H](C)O1 [Compound 19] | 100 to 1000 | 100 to 1000
21 | COc1cccc(-c2ccc3nc(CNC(=O)c4ccn(C(C)(C)C)c4)[nH]c3c2)c1 [Compound 16] | 100 to 1000 | 100 to 1000
22 | COc1ccc(-c2ccc3nc(CNC(=O)c4ccn(C(C)(C)C)c4)[nH]c3n2)cc1 [Compound 6] | 100 to 1000 | 100 to 1000
23 | CS(=O)(=O)n1ccc(C(=O)NCc2cc3nc(-c4ccc5c(c4)OCC5)ccc3cn2)c1 [Compound 68] | 100 to 1000 | 100 to 1000
24 | CS(=O)(=O)n1ccc(C(=O)NCc2nc3ccc(-c4cccc(OC(F)(F)F)c4)nc3[nH]2)c1 [Compound 29] | 100 to 1000 | 100 to 1000
25 | CS(=O)(=O)n1ccc(C(=O)NCc2cc3nc(-c4cccc(C(F)F)c4)ccc3cn2)c1 [Compound 65] | 100 to 1000 | 100 to 1000
26 | CC(C)(C)n1ccc(C(=O)NCc2nc3ccc(-c4cccc(C#N)c4)cc3[nH]2)c1 [Compound 39] | 100 to 1000 | 100 to 1000
27 | CS(=O)(=O)n1ccc(C(=O)NCc2cc3nc(-c4cccc(C#N)c4)ccc3cn2)c1 [Compound 66, N-((2-(3-cyanophenyl)-1,6-naphthyridin-7-yl)methyl)-1-(methylsulfonyl)-1H-pyrrole-3-carboxamide] | > 1000 | > 1000

Continued, values first:

Row | IC50 [1] [nM] | IC50 [2] [nM] | SMILES
28 | 10 to 100 | 10 to 100 | COc1cccc(-c2ccc3nc(CNC(=O)c4cc(C)n(S(C)(=O)=O)c4)[nH]c3c2)c1 [Compound 17]
29 | 100 to 1000 | 100 to 1000 | CC(C)(C)n1ccc(C(=O)NCc2nc3ccc(-c4ccc5c(c4)CCO5)cc3[nH]2)c1 [Compound 40]
30 | 10 to 100 | 10 to 100 | C[C@@H]1CN(c2cccc(-c3ccc4cnc(CNC(=O)c5ccn(C(C)(C)C#N)n5)cc4n3)n2)C[C@H](C)O1 [Compound 79]
31 | 10 to 100 | 10 to 100 | CC(C)(C)n1ccc(C(=O)NCc2nc3ccc(-c4ccc5ncccc5c4)cc3[nH]2)c1 [Compound 34]
32 | 10 to 100 | 100 to 1000 | CC(C)(C)n1ccc(C(=O)NCc2nc3ccc(-c4cc(Cl)cc(C#N)c4)cc3[nH]2)c1 [Compound 30]
33 | 10 to 100 | 10 to 100 | CC(C)(C)n1ccc(C(=O)NCc2nc3ccc(-c4ccc5cnccc5c4)cc3[nH]2)c1 [Compound 41]
34 | 10 to 100 | 100 to 1000 | COc1ncc(-c2ccc3nc(CNC(=O)c4ccn(C(C)(C)C)c4)[nH]c3c2)cc1Cl [Compound 60]
35 | 10 to 100 | 100 to 1000 | COc1ccc(-c2ccc3nc(CNC(=O)c4ccn(C(C)(C)C)c4)[nH]c3c2)cc1Cl [Compound 35]
36 | 10 to 100 | 10 to 100 | Cc1nn(C)c2ccc(-c3ccc4nc(CNC(=O)c5ccn(C(C)(C)C)c5)[nH]c4c3)cc12 [Compound 49]
37 | 10 to 100 | 100 to 1000 | CC(C)(C)n1ccc(C(=O)NCc2nc3ccc(-c4ccc5c(c4)OCC5)cc3[nH]2)c1 [Compound 45]
38 | 10 to 100 | 100 to 1000 | COC[C@H](NC(=O)c1ccn(S(C)(=O)=O)c1)c1cc2nc(-c3cccc(N4C[C@@H](C)O[C@@H](C)C4)n3)ccc2cn1 [Compound 82]
39 | < 10 | 10 to 100 | C[C@@H]1CN(c2cccc(-c3ccc4cnc(CNC(=O)c5ccn(S(C)(=O)=O)c5)cc4n3)n2)C[C@H](C)O1 [Compound 76, N-((2-(6-(cis-2,6-dimethylmorpholino)pyridin-2-yl)-1,6-naphthyridin-7-yl)methyl)-1-(methylsulfonyl)-1H-pyrrole-3-carboxamide]
40 | 10 to 100 | 10 to 100 | COc1ccc2cc(-c3ccc4nc(CNC(=O)c5ccn(C(C)(C)C)c5)[nH]c4c3)ccc2c1 [Compound 44]
41 | 10 to 100 | 10 to 100 | CN(C)c1ncc(-c2ccc3nc(CNC(=O)c4ccn(C(C)(C)C)c4)[nH]c3c2)cn1 [Compound 56]
42 | 10 to 100 | 10 to 100 | C[C@H](NC(=O)c1ccn(S(C)(=O)=O)c1)c1nc2ccc(-c3cccc(-c4ccncc4)c3)nc2[nH]1 [Compound 4]
43 | 10 to 100 | 100 to 1000 | Cc1nc2cc(-c3ccc4nc(CNC(=O)c5ccn(C(C)(C)C)c5)[nH]c4c3)ccc2s1 [Compound 50]
44 | 10 to 100 | 100 to 1000 | CN1CCOc2ccc(-c3ccc4cnc(CNC(=O)c5ccn(S(C)(=O)=O)c5)cc4n3)cc21 [Compound 69]
45 | 10 to 100 | 10 to 100 | CC(C)(C)n1ccc(C(=O)NCc2nc3ccc(-c4ccc5scnc5c4)cc3[nH]2)c1 [Compound 42]
46 | 10 to 100 | 10 to 100 | Cn1ccc2cc(-c3ccc4nc(CNC(=O)c5ccn(C(C)(C)C)c5)[nH]c4c3)ccc21 [Compound 32]
47 | 10 to 100 | 10 to 100 | CS(=O)(=O)n1ccc(C(=O)NCc2nc3ccc(-c4ccc(OC(F)(F)F)cc4)nc3[nH]2)c1 [Compound 28]
48 | 10 to 100 | 10 to 100 | CN1Cc2ccc(-c3ccc4nc(CNC(=O)c5ccn(C(C)(C)C)c5)[nH]c4c3)cc2C1=O [Compound 31]
49 | 10 to 100 | 100 to 1000 | CC(C)S(=O)(=O)n1ccc(C(=O)NCc2nc3ccc(-c4cccc(-c5ccncc5)c4)nc3[nH]2)c1 [Compound 3]
50 | 10 to 100 | 100 to 1000 | CS(=O)(=O)n1ccc(C(=O)NCc2nc3ccc(-c4cccc(N5CCC5)c4)nc3[nH]2)c1 [Compound 10]
51 | 10 to 100 | 100 to 1000 | CS(=O)(=O)n1ccc(C(=O)NCc2cc3nc(-c4cncc(C5CC5)n4)ccc3cn2)c1 [Compound 80, N-[[2-(6-cyclopropylpyrazin-2-yl)-1,6-naphthyridin-7-yl]methyl]-1-methylsulfonyl-pyrrole-3-carboxamide]
52 | 10 to 100 | 10 to 100 | C[C@@H]1CN(c2cccc(-c3ccc4nc(CNC(=O)c5ccn(S(C)(=O)=O)c5)[nH]c4n3)c2)C[C@H](C)O1 [Compound 13]
53 | 10 to 100 | 100 to 1000 | Cn1cc(-c2cccc(-c3ccc4cnc(CNC(=O)c5ccn(S(C)(=O)=O)c5)cc4n3)c2)cn1 [Compound 71]
